Reference: BindingDB's records for PubMed 9103528 (Pharmacia & Upjohn, 1997)

Assays:
[1] = target: T1, 5-hydroxytryptamine receptor 1A (Rattus norvegicus, UniProt P19327)
T1 sequence (P19327 whole entry): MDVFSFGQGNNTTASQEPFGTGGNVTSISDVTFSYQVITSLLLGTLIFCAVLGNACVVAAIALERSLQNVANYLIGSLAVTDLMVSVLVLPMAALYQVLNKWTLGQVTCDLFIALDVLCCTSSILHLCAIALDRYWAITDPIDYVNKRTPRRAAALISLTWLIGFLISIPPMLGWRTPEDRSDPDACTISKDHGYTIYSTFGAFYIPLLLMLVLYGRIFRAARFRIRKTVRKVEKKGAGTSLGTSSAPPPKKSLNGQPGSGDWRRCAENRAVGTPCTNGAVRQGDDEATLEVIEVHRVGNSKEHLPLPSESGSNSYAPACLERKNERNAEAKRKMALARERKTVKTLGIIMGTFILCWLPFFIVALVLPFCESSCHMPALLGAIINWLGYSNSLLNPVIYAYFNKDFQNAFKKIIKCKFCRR

[2] = target: 5-hydroxytryptamine receptor 2A (Rattus norvegicus, UniProt P14842)
[3] = target: T2, Alpha-1A adrenergic receptor (Rattus norvegicus, UniProt P43140)
T2 sequence (P43140 whole entry): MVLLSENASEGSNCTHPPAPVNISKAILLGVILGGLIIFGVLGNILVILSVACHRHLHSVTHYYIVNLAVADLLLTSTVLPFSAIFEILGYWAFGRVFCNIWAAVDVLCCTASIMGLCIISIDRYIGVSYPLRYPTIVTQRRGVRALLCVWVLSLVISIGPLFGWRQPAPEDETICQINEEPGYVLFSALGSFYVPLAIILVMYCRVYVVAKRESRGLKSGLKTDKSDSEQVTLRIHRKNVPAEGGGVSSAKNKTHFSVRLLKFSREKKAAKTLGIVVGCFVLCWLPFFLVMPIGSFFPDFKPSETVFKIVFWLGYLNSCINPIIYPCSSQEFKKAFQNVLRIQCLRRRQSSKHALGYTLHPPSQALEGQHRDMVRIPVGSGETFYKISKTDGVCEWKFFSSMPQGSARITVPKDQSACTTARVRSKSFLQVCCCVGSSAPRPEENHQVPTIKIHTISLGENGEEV

[4] = target: D(2) dopamine receptor (Rattus norvegicus, UniProt P61169)
[5] = target: T3, Muscarinic acetylcholine receptor M2 (Rattus norvegicus, UniProt P10980)
T3 sequence (P10980 whole entry): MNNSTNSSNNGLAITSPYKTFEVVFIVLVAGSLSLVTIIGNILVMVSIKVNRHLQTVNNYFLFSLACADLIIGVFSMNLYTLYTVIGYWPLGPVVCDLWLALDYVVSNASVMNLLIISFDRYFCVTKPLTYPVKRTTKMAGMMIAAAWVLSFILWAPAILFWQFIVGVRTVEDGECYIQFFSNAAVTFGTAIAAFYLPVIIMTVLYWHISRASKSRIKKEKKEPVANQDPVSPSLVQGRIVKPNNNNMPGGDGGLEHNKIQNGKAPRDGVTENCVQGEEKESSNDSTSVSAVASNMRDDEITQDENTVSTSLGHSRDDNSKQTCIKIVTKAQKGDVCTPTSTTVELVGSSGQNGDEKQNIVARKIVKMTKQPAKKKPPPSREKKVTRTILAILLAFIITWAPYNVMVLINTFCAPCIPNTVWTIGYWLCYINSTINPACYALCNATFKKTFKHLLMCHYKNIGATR

[6] = target: T4, Alpha-2C adrenergic receptor (Rattus norvegicus, UniProt P22086)
T4 sequence (P22086 whole entry): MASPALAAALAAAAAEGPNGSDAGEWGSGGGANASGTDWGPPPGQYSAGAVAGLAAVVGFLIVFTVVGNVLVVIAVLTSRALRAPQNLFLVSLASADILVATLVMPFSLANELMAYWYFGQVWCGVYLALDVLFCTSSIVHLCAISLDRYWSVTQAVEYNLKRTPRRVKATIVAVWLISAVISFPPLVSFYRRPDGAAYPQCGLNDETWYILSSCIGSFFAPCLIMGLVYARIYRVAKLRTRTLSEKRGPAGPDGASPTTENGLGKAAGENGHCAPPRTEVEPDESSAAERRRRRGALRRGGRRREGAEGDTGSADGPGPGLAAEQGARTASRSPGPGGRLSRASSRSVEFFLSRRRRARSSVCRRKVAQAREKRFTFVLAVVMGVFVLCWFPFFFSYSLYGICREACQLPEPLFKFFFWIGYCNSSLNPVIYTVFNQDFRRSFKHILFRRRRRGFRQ

Chain of D(2) dopamine receptor (P61169 whole entry): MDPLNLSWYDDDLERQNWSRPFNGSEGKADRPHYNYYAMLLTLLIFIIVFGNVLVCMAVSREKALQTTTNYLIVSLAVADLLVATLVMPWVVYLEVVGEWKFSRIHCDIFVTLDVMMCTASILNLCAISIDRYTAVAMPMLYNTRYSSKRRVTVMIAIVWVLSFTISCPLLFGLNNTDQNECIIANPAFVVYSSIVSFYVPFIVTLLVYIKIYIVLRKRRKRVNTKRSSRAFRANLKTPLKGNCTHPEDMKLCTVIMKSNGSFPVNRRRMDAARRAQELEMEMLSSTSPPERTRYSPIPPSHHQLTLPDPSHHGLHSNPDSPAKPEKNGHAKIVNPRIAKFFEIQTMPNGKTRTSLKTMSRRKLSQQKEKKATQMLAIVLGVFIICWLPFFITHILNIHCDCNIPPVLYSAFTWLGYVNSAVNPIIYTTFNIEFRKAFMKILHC
Chain of 5-hydroxytryptamine receptor 2A (P14842 whole entry): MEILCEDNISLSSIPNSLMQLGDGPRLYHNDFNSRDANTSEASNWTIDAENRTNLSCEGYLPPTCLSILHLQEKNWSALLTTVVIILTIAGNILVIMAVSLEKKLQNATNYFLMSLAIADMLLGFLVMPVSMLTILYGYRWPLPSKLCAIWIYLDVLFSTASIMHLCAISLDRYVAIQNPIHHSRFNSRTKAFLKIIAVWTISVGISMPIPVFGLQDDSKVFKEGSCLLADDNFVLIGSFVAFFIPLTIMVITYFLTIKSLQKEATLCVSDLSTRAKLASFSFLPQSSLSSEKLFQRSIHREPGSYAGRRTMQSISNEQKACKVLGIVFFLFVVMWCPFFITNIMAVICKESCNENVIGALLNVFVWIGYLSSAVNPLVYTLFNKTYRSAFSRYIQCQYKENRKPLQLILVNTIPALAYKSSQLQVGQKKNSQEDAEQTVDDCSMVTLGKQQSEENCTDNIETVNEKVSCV

Ki [1]: 0.134 µM | Ki [2]: 0.0058 µM | Ki [3]: 0.038 µM | Ki [4]: 0.199 µM | Ki [5]: 0.678 µM | Ki [6]: 0.181 µM
Structure (SMILES): Fc1ccc(N2CCN(CCC3OCCc4ccccc43)CC2)cc1 (stereo unspecified) [CAS_170856-41-4]
